Earlier results in paper PMC4894406, “Results of an abbreviated phase-II study with the Akt Inhibitor MK-2206 in Patients with Advanced Biliary Cancer” (Scientific Reports, 2015).

Tested on: cholangiocarcinoma cell lines
Details: pre-clinical data; cited from earlier work

Compound	effect on CXCL12-induced cholangiocarcinoma cell invasion
O=c1cc(N2CCOCC2)oc2c(-c3ccccc3)cccc12 [LY294002]	attenuated
N#CC(=C(/N)Sc1ccccc1N)/C(C#N)=C(/N)Sc1ccccc1N [UO126]	attenuated
